Test results from PubChem BioAssay (NCI).
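96-well plates; 48 h exposure; 5 concentrations. Endpoints by linear interpolation between flanking doses. Not reached: highest tested concentration assigned. TGI denotes the concentration required for complete inhibition of growth.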

Experiments:
Test in all cases: growth of human tumour cells (NCI), 48 h
[1] = system: BT-549 breast
[2] = system: MDA-MB-231 breast
[3] = system: SF-268 CNS
[4] = system: HT29 colon
[5] = system: A498 renal
[6] = system: SK-MEL-28 melanoma
[7] = system: OVCAR-5 ovarian
[8] = system: 786-0 renal
[9] = system: MALME-3M melanoma
[10] = system: A549 NSCLC
[11] = system: SNB-19 CNS

SMILES: CC1(C)NC2C(=O)c3c([nH]c4ccccc34)[C@]3(C)CCC1CC23 (some centres not stated)
- TGI [1]: > 100 µM
- TGI [2]: > 100 µM
- TGI [3]: > 100 µM
- TGI [4]: > 100 µM
- TGI [5]: > 100 µM
- TGI [6]: > 100 µM
- TGI [7]: > 100 µM
- TGI [8]: > 100 µM
- TGI [9]: > 100 µM
- TGI [10]: > 100 µM

SMILES: CCOC(=O)c1nc2ccc(C(F)(F)F)cc2nc1NCc1cc(OC)c(OC)c(OC)c1
- TGI [1]: > 100 µM
- TGI [2]: > 100 µM
- TGI [11]: > 100 µM
- TGI [3]: > 100 µM
- TGI [4]: > 100 µM
- TGI [5]: > 100 µM
- TGI [6]: > 100 µM
- TGI [7]: > 100 µM
- TGI [8]: > 100 µM
- TGI [10]: > 100 µM

SMILES: CC1OC(OC2C(O[C@H]3CC[C@@]4(C)C(=CC[C@H]5[C@@H]6C[C@@H]7O[C@]8(CC[C@@H](CO)CO8)[C@@H](C)[C@@H]7[C@@]6(C)CC[C@@H]54)C3)OC(CO)C(O)C2OC2OC(CO)C(O)C(O)C2O)C(O)C(O)C1O (some centres not stated)
- TGI [2]: 3.25 µM
- TGI [11]: 3.96 µM
- TGI [3]: 3.54 µM
- TGI [4]: 4.91 µM
- TGI [5]: 3.82 µM
- TGI [6]: 3.46 µM
- TGI [7]: 4.08 µM
- TGI [8]: 3.3 µM
- TGI [9]: 3.34 µM
- TGI [10]: 4.48 µM

SMILES: C=CCCN1CCc2c([nH]c3ccccc23)C1C(=O)O (configuration not stated)
- TGI [11]: > 100 µM
- TGI [3]: > 100 µM
- TGI [4]: > 100 µM
- TGI [5]: > 100 µM
- TGI [6]: > 100 µM
- TGI [7]: > 100 µM
- TGI [9]: > 100 µM
- TGI [10]: > 100 µM

SMILES: Cc1ccc(/C=C2\CCCc3ccccc3C2=O)cc1
- TGI [1]: 54.1 µM
- TGI [2]: 36.9 µM
- TGI [11]: 89.2 µM
- TGI [3]: 30.7 µM
- TGI [4]: 18.5 µM
- TGI [6]: > 100 µM
- TGI [7]: 29.5 µM
- TGI [8]: > 100 µM
- TGI [9]: 34.5 µM
- TGI [10]: > 100 µM

SMILES: O=P(Nc1ccc(Cl)cc1)(Oc1ccccc1)N(CCCl)CCCl (configuration not stated)
- TGI [3]: > 100 µM
- TGI [4]: > 100 µM
- TGI [5]: > 100 µM
- TGI [6]: > 100 µM
- TGI [7]: > 100 µM
- TGI [9]: > 100 µM
- TGI [10]: > 100 µM

SMILES: NC(N)=NCCC[C@H](N)C(=O)NCC(=O)N[C@@H](CC(=O)O)c1ncc(NC(=O)C(F)(F)F)o1
- TGI [1]: > 25 µM
- TGI [3]: > 25 µM
- TGI [4]: > 25 µM
- TGI [5]: > 25 µM
- TGI [6]: > 25 µM
- TGI [7]: > 25 µM
- TGI [8]: > 25 µM
- TGI [9]: > 25 µM
- TGI [10]: > 25 µM

SMILES: O=C1C=CC[C@H]2O[C@@H](COC(=O)Cc3ccccc3)C[C@H]2O1
- TGI [2]: > 100 µM
- TGI [11]: > 100 µM
- TGI [3]: 56.2 µM
- TGI [4]: 71.7 µM
- TGI [5]: > 100 µM
- TGI [6]: 74.4 µM
- TGI [7]: > 100 µM
- TGI [10]: > 100 µM

SMILES: NN/C(=N\S(=O)(=O)c1cc2ccccc2s1)Nc1ccc(Cl)cc1
- TGI [1]: 35.6 µM
- TGI [2]: 40.4 µM
- TGI [11]: 64.6 µM
- TGI [3]: 37.9 µM
- TGI [4]: 38.9 µM
- TGI [5]: 39.5 µM
- TGI [6]: 75 µM
- TGI [7]: 48.2 µM
- TGI [8]: 35.4 µM
- TGI [10]: 39.8 µM

SMILES: CCOC(=O)CNc1c(OCc2ccccc2)c(=O)c1=O
- TGI [1]: > 100 µM
- TGI [2]: > 100 µM
- TGI [11]: > 100 µM
- TGI [3]: > 100 µM
- TGI [4]: > 100 µM
- TGI [6]: > 100 µM
- TGI [7]: > 100 µM
- TGI [8]: > 100 µM
- TGI [9]: > 100 µM
- TGI [10]: > 100 µM

SMILES: Oc1ccc(-c2nc(-c3cccnc3)c(-c3ccc(Cl)cc3)[nH]2)cc1
- TGI [1]: 29 µM
- TGI [2]: 35.1 µM
- TGI [11]: 31.2 µM
- TGI [3]: 29.6 µM
- TGI [4]: 28.4 µM
- TGI [6]: 32.1 µM
- TGI [7]: 33.5 µM
- TGI [8]: 28.8 µM
- TGI [9]: 26.8 µM
- TGI [10]: 30.1 µM

SMILES: N=C(N)c1ccc(C(NC(=O)CNS(=O)(=O)c2ccc3ccccc3c2)P(=O)(Oc2ccccc2)Oc2ccccc2)cc1 (configuration not stated)
- TGI [1]: 66.2 µM
- TGI [2]: > 100 µM
- TGI [11]: > 100 µM
- TGI [3]: > 100 µM
- TGI [4]: > 100 µM
- TGI [6]: > 100 µM
- TGI [7]: > 100 µM
- TGI [8]: > 100 µM
- TGI [9]: > 100 µM
- TGI [10]: > 100 µM

SMILES: O=C(O)c1ccc([N+](=O)[O-])c2cc3cnccc3nc12
- TGI [1]: 33.5 µM
- TGI [2]: 36.2 µM
- TGI [4]: 57.3 µM
- TGI [5]: > 100 µM
- TGI [6]: 34.8 µM
- TGI [7]: 76.9 µM
- TGI [9]: 42.2 µM

SMILES: O=C(NNC(=S)Nc1cccc(Cl)c1)c1cc(-c2ccccc2)nc2ccccc12
- TGI [1]: 34.3 µM
- TGI [2]: 33.2 µM
- TGI [11]: 33.9 µM
- TGI [3]: 35.4 µM
- TGI [4]: 45.3 µM
- TGI [6]: 26.5 µM
- TGI [7]: 36 µM
- TGI [8]: 31.2 µM
- TGI [9]: 29.9 µM
- TGI [10]: 32.3 µM

SMILES: OCC(O)COCn1nncc1Cn1ncc2c(SCc3ccccc3)ncnc21 (configuration not stated)
- TGI [1]: > 100 µM
- TGI [2]: > 100 µM
- TGI [11]: > 100 µM
- TGI [3]: 41.1 µM
- TGI [4]: > 100 µM
- TGI [5]: > 100 µM
- TGI [6]: > 100 µM
- TGI [7]: > 100 µM
- TGI [8]: > 100 µM
- TGI [10]: > 100 µM

SMILES: Cc1nc(-c2cc3cc([N+](=O)[O-])ccc3oc2=O)cs1
- TGI [1]: > 100 µM
- TGI [2]: > 100 µM
- TGI [11]: > 100 µM
- TGI [3]: > 100 µM
- TGI [4]: > 100 µM
- TGI [6]: > 100 µM
- TGI [7]: > 100 µM
- TGI [8]: > 100 µM
- TGI [10]: > 100 µM

SMILES: CC(C)[Si](OC1=C(C(=O)N(C)c2cccc(Cl)c2)CCCC1)(C(C)C)C(C)C
- TGI [2]: 34.6 µM
- TGI [11]: 31 µM
- TGI [3]: 28.6 µM
- TGI [4]: 31.1 µM
- TGI [5]: 31.5 µM
- TGI [6]: 28.6 µM
- TGI [7]: 22.5 µM
- TGI [8]: 34.2 µM
- TGI [9]: 24.9 µM
- TGI [10]: 19.9 µM

SMILES: CC12C(=O)CC(CC1=O)C2(C)C
- TGI [1]: > 100 µM
- TGI [11]: > 100 µM
- TGI [3]: > 100 µM
- TGI [4]: > 100 µM
- TGI [6]: > 100 µM
- TGI [7]: > 100 µM
- TGI [8]: > 100 µM
- TGI [9]: > 100 µM
- TGI [10]: > 100 µM

SMILES: N#CC(NC12CC3CC(CC(C3)C1)C2)c1ccccc1C(F)(F)F (configuration not stated)
- TGI [11]: > 100 µM
- TGI [3]: > 100 µM
- TGI [4]: > 100 µM
- TGI [6]: > 100 µM
- TGI [7]: > 100 µM
- TGI [9]: > 100 µM
- TGI [10]: > 100 µM

SMILES: NC(N)=N/N=C/c1c[nH]c2ccccc12
- TGI [11]: > 100 µM
- TGI [3]: > 100 µM
- TGI [4]: > 100 µM
- TGI [6]: > 100 µM
- TGI [7]: > 100 µM
- TGI [8]: > 100 µM
- TGI [9]: > 100 µM
- TGI [10]: > 100 µM

SMILES: COc1cc(C(=O)N(Cc2cccnc2)C(=S)N(Cc2cccnc2)C(=O)c2cc(OC)c(OC)c(OC)c2)cc(OC)c1OC
- TGI [1]: 85.5 µM
- TGI [11]: > 100 µM
- TGI [3]: > 100 µM
- TGI [4]: > 100 µM
- TGI [5]: 52.9 µM
- TGI [6]: > 100 µM
- TGI [7]: > 100 µM
- TGI [8]: > 100 µM
- TGI [9]: > 100 µM
- TGI [10]: > 100 µM
